In patent US5856189A, “Cell culture model for drug bioavailability” (priority 1997, dated 1999):

What was measured:
[1] = target: CYP3A (Caco-2 cells) (Homo sapiens, UniProt P08684); details: serum-free; 4 μM MDZ apical, 6.5 h; FIG. 9
Protocol: Standards were also prepared in duplicate. Known amounts of MDZ and 1'-OH-MDZ (1-50 ng) were combined with 100 mM potassium phosphate buffer, pH 7.4.
Unknowns and standards were extracted with 5 mL ethyl acetate and the upper organic layer transferred to clean tubes. The solvent was evaporated to dryness under a stream of nitrogen. The remaining solvent was reconstituted in 100 μL derivatizing reagent (10% N-methyl-N-(t-butyldimethylsilyl)trifluoroacetamide in acetonitrile).
At the end of this period, the medium was replaced with medium not containing vitamin D (except that contributed by the 5% FBS). Next, 4 μM MDZ was added to the apical (luminal) or basolateral (serosal) medium of the cells.
Parent drug and metabolite concentrations measured at 1 and 2 hours after MDZ administration were used for computation. The amount of 1'-OH-MDZ formed during this interval was determined as the sum of metabolite in the apical and basolateral compartments at 2 hours minus the total amount measured at 1 hour.
Because the incubation medium contained significant amounts of FBS, the fraction of MDZ bound to culture medium proteins was measured by equilibrium dialysis. […] The unbound concentration of MDZ in the apical and basolateral compartments during cell culture was calculated as the product of the experimentally determined MDZ-free fraction and total MDZ concentration. Since MDZ concentrations in the apical and basolateral compartments were not at equilibrium during the 1-2 hour MDZ incubation interval, the intracellular reaction was assumed to be driven by a MDZ concentration that was more closely aligned with the concentration in the basolateral compartment.
At the end of this period, the medium was replaced with medium containing neither serum nor vitamin D. Next, MDZ (4 μM) was added to the apical compartment.

[2] = test system: Caco-2 cells; assay: Glucuronidation of 1'-OH-MDZ in Caco-2 cells; details: 2-24 h with 4 μM MDZ; β-glucuronidase
Protocol: The experiments of this example assess whether glucuronidation occurs in the culture system of the present invention. […] Each of a complete set of parallel 0.5 mL samples was diluted to a volume of 1 mL and spiked with 20 ng 1'-[^2 H2 ],1'-OH-MDZ (no glucuronidase treatment).

[3] = test system: Caco-2 cells; assay: Apical/basolateral distribution of midazolam and metabolite across Caco-2 monolayers; details: every time point, also after basolateral MDZ
From the text: At the end of this period, the medium was replaced with medium not containing vitamin D (except that contributed by the 5% FBS).

[4] = test system: CYP3A3 mRNA (Caco-2 cells); assay: RT-PCR of CYP3A3 mRNA in treated Caco-2 cells; type: cell-based, human; details: treated or untreated Caco-2 cells
From the text: Primer sequences for amplification of CYP3A3, CYP3A4, CYP3A5, and
These are the same primer sequences previously used by J. C. Kolars et al. [Pharmacogenetics 4:247-259 (1994)], except that a different antisense primer (SEQ ID NO:9) was used for CYP3A5, and the first sense primer for CYP3A3 was paired with the second antisense primer used by Kolars et al. (i.e., in the present invention, SEQ ID NO:1 was paired with SEQ ID NO:2).

[5] = test system: CYP3A5; assay: Immunoblot of CYP3A5 protein in Caco-2 cells; type: cell-based, human; details: two weeks treatment, varying concentrations
Protocol: CYP3A5 was detected using an immunoadsorbed polyclonal rabbit antibody obtained from Dr. Steven A. Wrighton (Eli Lilly). The antibody may be generated by injecting rabbits subcutaneously with 100 μg of P450IIIA5 in 0.75 mL of phosphate-buffered saline in an emulsion made with 1.25 mL of Freund's complete adjuvant. Four weeks later, 50 μg of P450IIIA5 (in the same preparation) is injected. Finally, eight weeks from the initial injection, 50 μg of […] in 300 μL of phosphate-buffered saline is injected intravenously into the rabbits' ear vein. Serum was obtained 10 weeks following the initial immunization and weekly thereafter. The IgG fraction was then isolated and antibodies specific to CYP3A5 were isolated by adsorption of contaminating antibodies to sepharose-bound CYP3A4 [S. A. Wrighton et al., Mol. Pharmacol. 38:207-213 (1990).

[6] = test system: CYP1A1; assay: Immunoblot of CYP1A1 protein in Caco-2 cells; type: cell-based, human; details: two weeks treatment, varying concentrations
[7] = test system: P-glycoprotein; assay: Immunoblot of P-glycoprotein in Caco-2 cells; type: cell-based, human
From the text: (§1) The homogenates were electrophoresed in polyacrylamide gels containing 0.1% SDS, and the separated proteins were electrophoretically transferred to nitrocellulose. Nonspecific binding sites were blocked using 0.3% Tween 20 and 5% nonfat dry milk (Carnation) in Tris buffered saline.
(§2) P-glycoprotein was detected using a polyclonal rabbit antibody (Oncogene Science), and villin was detected using a mouse monoclonal antibody (Chemicon International).
(§3) Secondary antibodies of appropriate specificities conjugated with horseradish peroxidase were obtained commercially (rabbit anti-mouse IgG and goat anti-rabbit IgG/A/M from Zymed and mouse anti-goat IgG/A/M from Pierce). Binding of secondary antibodies was detected using the enhanced chemiluminescence (ECL™) reagents and film from Amersham.
(§4) Cell homogenates were then prepared as described above and immunoblots were performed; the Caco-2 protein loads were as follows: 10 ,μg for CYP3A, CYP3A5, P-glycoprotein, villin; 25 pg for CYP1A1, CYP2D6; 40 μg for IFABP, LFABP; 80 μg for NADPH cytochrome P450 reductase, cytochrome b5 (the villin, IFABP, and LFABP served as control proteins).

[8] = test system: LFABP; assay: Immunoblot of LFABP in Caco-2 cells; type: cell-based, human; details: two weeks treatment, varying concentrations
From the text: as §1, §2, §3, §4

[9] = test system: villin; assay: Immunoblot of villin in Caco-2 cells; type: cell-based, human; details: for villin expression at the highest concentrations used: FIG. 3
From the text: as §1, §2, §3, §4

[10] = test system: CYP3A4 mRNA (Caco-2 cells)
Protocol: Harvesting for mRNA Analyses and RNA Isolation
The medium was aspirated and the culture inserts were washed three times with Hanks' BSS containing 15 mM HEPES. […] After 5 minutes, the cell lysate was transferred to a microcentrifuge tube and kept at -80° C. pending further processing. At a later time, the lysate was thawed quickly at 65° C., and total RNA was isolated according to the protocol of P. Chomczynski and N. Sacchi. Briefly, extraction was performed using the denaturing solution, 2M sodium acetate (pH 4), phenol, and chloroform (1:0.1:1:0.2). Next, precipitation was effected with 2 volumes of ethanol. Resolubilization and reprecipitation was then performed using the denaturing solution and 2 volumes of ethanol. […] The reagent volumes were adjusted proportionately as appropriate for the initial lysate volume.
(§5) cDNA was prepared from the total RNA using reverse transcriptase from avian myeloblastosis virus (Seikagaku America). […] The polymerase chain reaction was performed on 1 μL of a 1:10 dilution in water of a prepared cDNA.
Each thermal cycle consisted of 95° C. for 1 min, then 65° C. for 1 min 15 sec; after completing all cycles, a 10 min extension step at 65° C. was performed. The number of cycles performed in each PCR reaction is set forth below in the Examples.
(§6) PCR products were electrophoresed on agarose gels and stained with ethidium bromide. […] PCR products were judged to be of the size appropriate for amplification of the specific cDNA by comparison with molecular weight standards included on each gel.
An internal standard for quantitative competitive PCR of CYP3A4 cDNA was prepared by inserting a 30 base pair segment into the cDNA sequence to be amplified. PCR reaction mixtures were prepared by combining serial dilutions of a known amount of the standard cDNA and constant amounts of the unknown cDNA. The two cDNAs were amplified together and the products were separated on agarose gels. After staining with ethidium bromide, the two bands were quantitated densitometrically. An equivalence point (at which the densities of the standard and unknown bands are of equal optical density) was determined; the concentration of the unknown is equal to that of the standard at the point of equivalence.
The cells from all experiments were maintained in their respective differentiation media for two weeks post-confluence. Thereafter, the cells were used for midazolam metabolism studies and/or harvested for analysis of protein or mRNA (described below).
(§7) The numbers of PCR cycles were as follows: CYP3A4, 36; CYP3A5, 33; CYP3A7, 39; mdr-1, 34; IFABP, 32; and villin, 27.
(§8) At that time, the medium was replaced with medium without vitamin D (except that contributed by the 5% FBS. Total RNA was then prepared as described above and subjected to RT-PCR using synthetic oligonucleotide primer pairs designed to selectively amplify fragments of the CYP3A4 and villin cDNAs (see Table 3). The numbers of PCR cycles were as follows: CYP3A4, 36; and villin, 27. Moreover, immunoblots were performed as described above for CYP3A, NADPH cytochrome P450 reductase, P-glycoprotein, and villin. The protein loads used for the immunoblot procedures were as follows: 5 μg for CYP3A, P-glycoprotein, villin; and 40 ,μg for NADPH cytochrome P450 reductase.

[11] = test system: CYP3A (Caco-2 cells)
Protocol: At the end of that period, the medium was replaced with medium not containing vitamin D (except that contributed by the 5% FBS). […] After 6 hours, the apical and basolateral media were removed separately and analyzed for 1'-OH-MDZ concentration.
As previously indicated, the medium was aspirated and the inserts were washed three times with Hanks'BSS. […] After 6 hours, the amount of 1'-OH-MDZ was measured in the combined luminal plus basolateral medium from each culture and the rate of formation calculated.
For the experiments of this example, all cells (Caco-2 cell clones and the parent cell line) were grown on Matrigel-coated teflon culture inserts. […] At the end of this period, the medium was replaced with medium not containing vitamin D (except that contributed by the 5% FBS). Next, MDZ (4 μM) was added to the apical compartment. […] Catalytic activity and levels of protein expression were determined as previously described.
Catalytic activity and levels of protein expression were determined as previously described.

[12] = test system: CYP2D6; details: two weeks treatment, varying concentrations
From the text: as §1
CYP2D6 was detected using a polyclonal rabbit antibody developed against unique antigenic peptides and was obtained from Dr. Alastair Cribb (Merck Research Laboratories, West Point, Pa.).
as §3

[13] = test system: CYP3A5 mRNA (Caco-2 cells); assay: RT-PCR of CYP3A5 mRNA in treated Caco-2 cells; details: 0.05-1.0 μM, two weeks
Protocol: as §5
(§9) Each thermal cycle consisted of 95° C. for 1 min, then 65° C. for 1 min 15 sec; after completing all cycles, a 10 min extension step at 65° C. was performed.
as §6, §7

[14] = test system: CYP3A7 mRNA (Caco-2 cells); assay: RT-PCR of CYP3A7 mRNA in treated Caco-2 cells; details: 0.05-1.0 μM, two weeks
Protocol: as §5, §9, §6, §7

[15] = test system: NADPH cytochrome P450 reductase; assay: Immunoblot of NADPH cytochrome P450 reductase in Caco-2 cells; details: for concentrations at which NADPH cytochrome P450 reductase level increased: two weeks treatment
From the text: as §1, §3, §4, §8

[16] = test system: CYP3A (Caco-2 cells); assay: Immunoblot of CYP3A immunoreactive protein in treated Caco-2 cells; details: for CYP3A4 expression at the highest concentrations used: FIGS. 2C and 3
Protocol: The medium was aspirated and the inserts were washed three times with Hanks' BSS containing 15 mM HEPES. Cells grown on Matrigel- (or Growth Factor Reduced Matrigel-) coated inserts were removed from the membranes using Dispase according to the manufacturer's protocol. Thereafter, 5 mM EDTA in normal saline containing 1 mM PMSF and 1 mM benzamidine was added to inhibit further digestion. The cell suspension was transferred to a microcentrifuge tube and pelleted by centrifugation at 325 g. The pellets were washed three times with Hanks' BSS containing 15 mM HEPES, 1 mM PMSF, and 1 mM benzamidine. The final pellet was resuspended in a solution of 20% v/v glycerol, 100 mM Tris HCl (pH 7.4), 10 mM EDTA, 1 mM dithiothreitol, I mM PMSF, 1 mM benzamidine, and 100 μg/mL aprotinin and homogenized in a conical ground glass tissue grinder with 20 passes of a ground glass pestle. The homogenate was subjected to 10 seconds of sonication and was then kept at -80° C. until analysis.
Cells grown on uncoated inserts or inserts coated with non-Matrigel matrices were harvested by scraping into Hanks' BSS containing HEPES and protease inhibitors, washed three times, and then homogenized, sonicated, and frozen as described above.
as §1
CYP1A1 was detected using a polyclonal goat antibody (Gentest) developed against rat CYP1A1 and CYP1A2. […] CYP3A proteins were detected using a mouse monoclonal antibody ("13-7-10") obtained from Dr. Pierre Kremers (Universite de Liege, Liege, Belgium). […] This antibody detects all known forms of human CYP3A.
as §3
In some cases, immunoblot protein concentrations were determined by computer-aided densitometry. When this procedure was conducted, optical densities were performed on a Macintosh (Apple) computer using the publicly available NIH Image program (developed at the U.S. National Institutes of Health and available on the Internet at http://rsb.info.nih.gov/nih-image/). Individual exposures were scanned into binary images with a ScanJetIIc color scanner (Hewlett-Packard). An optical density-concentration standard curve was prepared using the bands from second loaded serial dilutions of purified CYP3A4 protein, and the optical densities of unknowns were converted to quantitative numbers by comparison to this curve. This allowed for correction of the nonlinearity of ECL light output and ECL Hyperfilm.

[17] = test system: cytochrome b5; assay: Immunoblot of cytochrome b5 in Caco-2 cells; type: cell-based, human; details: two weeks treatment, varying concentrations
From the text: as §1, §3, §4

[18] = test system: IFABP; assay: Immunoblot of IFABP in Caco-2 cells; type: cell-based, human; details: two weeks treatment, varying concentrations
From the text: as §1, §2, §3, §4

[19] = test system: Caco-2 cells; details: cited from earlier work
[20] = two weeks treatment from confluence, 4 μM MDZ apical, 6 h, FIG. 2A

Chain of CYP3A (Caco-2 cells) (Homo sapiens, UniProt P08684) (P08684 2-503): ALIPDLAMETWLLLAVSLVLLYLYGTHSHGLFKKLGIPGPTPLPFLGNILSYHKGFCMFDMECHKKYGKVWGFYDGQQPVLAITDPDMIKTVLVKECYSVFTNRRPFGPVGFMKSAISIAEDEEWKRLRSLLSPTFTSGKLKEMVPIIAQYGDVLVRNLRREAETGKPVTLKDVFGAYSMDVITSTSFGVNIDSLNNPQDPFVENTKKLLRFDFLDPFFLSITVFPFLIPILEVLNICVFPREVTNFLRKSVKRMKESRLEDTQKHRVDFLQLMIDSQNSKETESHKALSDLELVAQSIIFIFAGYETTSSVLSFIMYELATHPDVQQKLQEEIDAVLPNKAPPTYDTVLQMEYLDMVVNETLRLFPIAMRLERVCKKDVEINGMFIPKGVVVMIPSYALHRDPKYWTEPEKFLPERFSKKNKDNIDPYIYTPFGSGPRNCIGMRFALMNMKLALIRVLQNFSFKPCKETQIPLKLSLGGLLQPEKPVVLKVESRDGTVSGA

## OCc1ncc2n1-c1ccc(Cl)cc1C(c1ccccc1F)=NC2 [1'-OH-MDZ, 1'-hydroxymidazolam]
[1]
  rate of 1'-OH-MDZ formation under serum-free incubation: decreased compared to that measured in the presence of serum
  rate of 1'-OH-MDZ formation, luminal vs basolateral medium: greater in the luminal medium than in the basolateral medium
[2]
  glucuronidation of 1'-OH-MDZ: had not occurred
[3]
  1'-OH-MDZ concentration, apical vs basolateral: greater in the apical medium than in the basolateral medium

## C=C1/C(=C\C=C2/CCC[C@]3(C)[C@@H]([C@H](C)CCCC(C)(C)O)CC[C@@H]23)C[C@@H](O)C[C@@H]1O [1α,25-(OH)2 -D3, 1α,25-dihydroxyvitamin D3]
[4]
  CYP3A3 mRNA: not detected
[5]
  level of CYP3A5 protein: little change
[6]
  level of CYP1A1 protein: did not appear to change
[7]; 0.25 μM, FIG. 5A
  exposure time until P-glycoprotein increased: about 72 hours
[8]
  level of LFABP protein: Neither of the FABPs showed changes in levels of expression
[9]
  villin expression at the highest concentrations used: lower levels of expression
[10]; 0.25 μM, FIG. 5A
  exposure time at which CYP3A4 mRNA appeared to plateau: 120 h
  exposure time until increase in CYP3A4 mRNA was evident: 3 to 4 h
[10]; 0.05-1.00 μM, two weeks from confluence
  CYP3A4 mRNA expression, dose-response: increased CYP3A4 mRNA expression at all concentrations used
[10]; added to differentiation medium (0.63 μM), two weeks post-confluence, Matrigel-coated Millicell CM inserts
  expression of CYP3A4 mRNA: dramatic increase in the expression of CYP3A4 mRNA
[11]; 0.25 μM two weeks, clones 4-8 and parent, untreated below limits of quantitation
  CYP3A catalytic activity, clones and parent line: demonstrably greater catalytic activity than the untreated cells
[11]; 0.25 μM, 4 μM MDZ apical, 6 h, FIG. 5B
  exposure time until midazolam metabolism first detectable: 12 h
[11]; 5% FBS media with 0.25 μM 1α,25-(OH)2 -D3
  difference in CYP3A catalytic activity among culture media: less than 4 fold
[11]; M-, D+, 0.25 μM
  CYP3A protein and catalytic activity without Matrigel: increased CYP3A protein and catalytic activity in the absence of Matrigel
[11]; apical concentrations, FIG. 2A
  extent of midazolam metabolism: dramatic increase in the extent of midazolam metabolism
[11]; clones and parent with and without treatment, p=0.0003
  correlation (R) of midazolam 1'-hydroxylation activity with CYP3A immunoreactive protein: 0.987
[11]; [20]
  concentration at which increase in CYP3A catalytic activity was evident / began: 50 nM
[12]
  level of CYP2D6 protein: did not appear to change
[13]
  CYP3A5 mRNA expression: appeared to increase in response to 1α,25-(OH)2 -D3, but to a much lesser degree
[14]
  CYP3A7 mRNA expression: appeared to increase in response to 1α,25-(OH)2 -D3, but to a much lesser degree
[15]; 0.25 μM two weeks
  NADPH cytochrome P450 reductase expression among clones and parent line: variable responsiveness
[15]; 0.25 μM, FIG. 5A
  exposure time until NADPH cytochrome P450 reductase increased: 168 h
[15]
  concentrations at which NADPH cytochrome P450 reductase level increased: ≥ 50 nM
[16]; 0.25 μM two weeks, all five clones and parent
  CYP3A immunoreactive protein, clones and parent line: increased levels of CYP3A immunoreactive protein
[16]; 0.25 μM, FIG. 5A
  exposure time until increased CYP3A protein was evident: 18 h
[16]; 0.5 μM, untreated 7.9
  CYP3A content by densitometry: 20.6 pmol CYP3A/mg of total protein
[16]; M+, D+, 0.25 μM
  CYP3A expression in response to 1α,25-(OH)2 -D3 on Matrigel: clearly enhanced when the Caco-2 cells were grown on Matrigel
[16]
  CYP3A4 expression at the highest concentrations used: lower levels of expression
[16]; two weeks treatment, FIG. 2C
  concentration at which increase in CYP3A immunoreactive protein was evident / began: 50 nM

## C=C1CC[C@H](O)C/C1=C/C=C1\CCC[C@]2(C)[C@@H]([C@H](C)CCCC(C)(C)O)CC[C@@H]12 [25-(OH)-D3, 25-hydroxyvitamin D3]
[5]
  level of CYP3A5 protein: little change
[6]
  level of CYP1A1 protein: did not appear to change
[17]
  level of cytochrome b5 immunoreactive protein: did not appear to change
[7]; two weeks treatment
  concentrations at which immunoreactive P-glycoprotein increased: ≥ 2.5 µM
[18]
  level of IFABP protein: Neither of the FABPs showed changes in levels of expression
[8]
  level of LFABP protein: Neither of the FABPs showed changes in levels of expression
[9]; concentrations ≥10 μM, two weeks, not shown
  level of villin immunoreactive protein: decrease slightly
[9]
  villin expression at the highest concentrations used: lower levels of expression
[11]; 15 μM, relative to maximum at 5 μM, FIG. 2B
  CYP3A catalytic activity at 15 μM: substantially declined
[11]; 20 μM, FIG. 2B
  CYP3A catalytic activity at 20 μM: declining still further
[11]; relative to 1α,25-(OH)2 -D3
  maximal CYP3A catalytic activity achieved: not as great as that achieved with 1α,25-(OH)2 -D3
[11]; [20]
  concentration at which increase in CYP3A catalytic activity was evident / began: 250 nM
[11]; two weeks treatment from confluence, FIG. 2A
  concentration at which CYP3A catalytic activity plateaued: > 1000 nM
[11]; two weeks treatment, FIG. 2B
  concentration of maximal CYP3A catalytic activity: 5000 nM
[12]
  level of CYP2D6 protein: did not appear to change
[15]
  concentrations at which NADPH cytochrome P450 reductase level increased: ≥ 500 nM
[16]
  CYP3A4 expression at the highest concentrations used: lower levels of expression
[16]; two weeks treatment, FIG. 2C
  concentration at which CYP3A immunoreactive protein plateaued: > 1000 nM
  concentration at which increase in CYP3A immunoreactive protein was evident / began: 250 nM

## C=C1CC[C@H](O)C/C1=C/C=C1\CCC[C@]2(C)[C@@H]([C@H](C)CCCC(C)C)CC[C@@H]12 [D3, cholecalciferol]
[11]; up to 1.0 μM, two weeks
  effect on midazolam metabolism: no effect
[19]; Giuliano et al.
  Caco-2 cell growth: decrease in cell growth
[19]; Halline et al.
  Caco-2 cell proliferation: dose-dependent inhibition of cell proliferation
[16]; up to 1.0 μM, two weeks
  effect on immunoreactive CYP3A protein: no effect

## CC(=O)OC/C=C(C)/C=C/C=C(C)/C=C/C1=C(C)CCCC1(C)C [Vitamin A, retinol acetate]
[10]
  enhancement of CYP3A4 mRNA expression: did not appear to enhance CYP3A4 mRNA expression

## NCC(=O)CCC(=O)O [delta-aminolevulinic acid]
[10]
  enhancement of CYP3A4 mRNA expression: did not appear to enhance CYP3A4 mRNA expression

## CCCC(=O)[O-].[Na+] [sodium butyrate]
[10]
  enhancement of CYP3A4 mRNA expression: did not appear to enhance CYP3A4 mRNA expression

## C=C1CC[C@H](O)C/C1=C/C=C1\CCC[C@]2(C)[C@@H]([C@H](C)/C=C/[C@H](C)C(C)C)CC[C@@H]12 [vitamin D2, ergocalciferol]
[10]
  enhancement of CYP3A4 mRNA expression: did not appear to enhance CYP3A4 mRNA expression

## CC1(S(=O)(=O)O)CC(=O)c2ccccc2C1=O (stereo not shown) [vitamin K, menadione sodium bisulfite]
[10]
  enhancement of CYP3A4 mRNA expression: did not appear to enhance CYP3A4 mRNA expression
